# Test results as given in US9260439B2, “Dihydropyrrolopyrimidine derivatives” (PFIZER INC., priority 2014, dated 2016).
# Target: truncated PI3Kα (p110α/iSH2 p85α) (Homo sapiens (Human), UniProt P42336)
# Assay: PI3KA_Act fluorescence polarization kinase assay (Ki)
# Assay type: biochemical
# Conditions: 1 mM ATP
# Procedure, shortened: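 p110α/iSH2 p85α (0.5 nM) was reacted with 30 μM sonicated PIP2 in 50 mM HEPES pH 7.4, 150 mM NaCl, 5 mM MgCl2, 1 mM DTT and 0.05% CHAPS for 30 min at room temperature, then stopped with EDTA. PIP3 was detected by fluorescence polarization (GST-Grp1 PH domain/TAMRA-PIP3), and Ki came from a Morrison tight-binding fit.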
# Sequence of truncated PI3Kα (p110α/iSH2 p85α) (P42336 whole entry, the tested form may be a part): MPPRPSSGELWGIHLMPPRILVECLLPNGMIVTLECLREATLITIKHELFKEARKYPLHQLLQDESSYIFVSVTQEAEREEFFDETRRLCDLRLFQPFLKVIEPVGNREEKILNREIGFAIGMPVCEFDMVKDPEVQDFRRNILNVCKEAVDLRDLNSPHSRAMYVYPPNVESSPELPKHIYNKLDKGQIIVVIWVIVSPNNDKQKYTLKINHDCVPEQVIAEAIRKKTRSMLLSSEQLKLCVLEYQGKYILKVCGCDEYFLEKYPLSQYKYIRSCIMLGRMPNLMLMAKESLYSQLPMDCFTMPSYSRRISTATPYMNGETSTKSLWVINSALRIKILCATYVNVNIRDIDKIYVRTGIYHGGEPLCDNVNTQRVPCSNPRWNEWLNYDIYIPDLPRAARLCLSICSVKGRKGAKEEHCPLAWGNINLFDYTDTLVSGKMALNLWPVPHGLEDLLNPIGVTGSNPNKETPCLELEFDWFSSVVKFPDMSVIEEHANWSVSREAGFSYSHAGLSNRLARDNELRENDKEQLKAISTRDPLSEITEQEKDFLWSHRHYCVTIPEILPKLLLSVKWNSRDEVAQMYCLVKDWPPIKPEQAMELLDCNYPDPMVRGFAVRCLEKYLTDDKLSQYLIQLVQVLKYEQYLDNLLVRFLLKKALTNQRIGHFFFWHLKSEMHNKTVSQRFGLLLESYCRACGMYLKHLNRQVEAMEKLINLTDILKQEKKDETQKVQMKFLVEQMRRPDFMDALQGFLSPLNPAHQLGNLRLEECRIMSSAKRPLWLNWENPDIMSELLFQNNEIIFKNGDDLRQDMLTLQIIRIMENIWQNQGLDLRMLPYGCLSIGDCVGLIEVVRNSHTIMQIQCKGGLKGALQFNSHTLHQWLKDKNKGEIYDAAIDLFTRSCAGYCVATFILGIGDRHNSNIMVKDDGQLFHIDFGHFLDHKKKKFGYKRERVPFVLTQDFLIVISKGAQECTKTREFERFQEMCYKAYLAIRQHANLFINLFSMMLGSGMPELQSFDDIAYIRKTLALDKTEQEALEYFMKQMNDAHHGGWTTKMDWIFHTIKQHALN
row,Compound,PI3KA_Act Ki [nM]
1,CC1(N2CCc3c(-c4cnc(N)nc4)nc(N4CCOCC4)nc32)CCN(S(C)(=O)=O)C1 (racemic) [Example 146],0.015
2,"Nc1ncc(-c2nc(N3CCOCC3)nc3c2CCN3[C@H]2CCC(F)(F)C2)cn1 (single isomer, unassigned) [Example 34]",0.730
3,"Nc1ncc(-c2nc(N3CCOCC3)nc3c2CCN3[C@@H]2CCC(F)(F)C2)cn1 (single isomer, unassigned) [Example 35]",0.311
4,"CC(=O)N1C[C@@H](F)[C@@H](N2CCc3c(-c4cnc(N)nc4)nc(N4CCOCC4)nc32)C1 (single isomer, unassigned) [Example 74]",2.441
5,"CC(C)S(=O)(=O)N1CC(N2CCc3c(-c4cnc(N)nc4)nc(N4CCOC[C@@H]4C)nc32)C1 [Example 1, 5-{2-[(3S)-3-methylmorpholin-4-yl]-7-[1-(propan-2-ylsulfonyl)azetidin-3-yl]-6,7-dihydro-5H-pyrrolo[2,3-d]pyrimidin-4-yl}pyrimidin-2-amine]",0.102
6,Nc1ncc(-c2nc(N3CCOCC3)nc3c2CCN3C2CC(F)(F)C2)cn1 [Example 13],0.211
7,CS(=O)(=O)N1CC[C@H](N2CCc3c(-c4cnc(N)nc4)nc(N4CCOCC4)nc32)C1 [Example 20],0.153
8,CNS(=O)(=O)N1CC[C@H](N2CCc3c(-c4cnc(N)nc4)nc(N4CCOCC4)nc32)C1 [Example 38],0.124

# Target: full-length PI3Kα (full-length p110α/p85α) (Homo sapiens (Human), UniProt P42336)
# Assay: PI3KA_FL fluorescence polarization kinase assay (Ki)
# Assay type: biochemical
# Conditions: 41 μM ATP
# Description: Enzyme Production for Biochemical Assays: 1) PI3Kα Complex (Full Length p110α and p85α)(“PI3KA_FL”)
# Genes encoding for full length p110α and p85α subunits of PI3Kα complex were subcloned from existing constructs into pFASTBAC Dual vector (Life Technologies, Carlsbad, Calif.) using standard cloning procedures. Gene encoding p110α subunit was subcloned into polyhedrine promoter while gene encoding p85α subunit was subcloned into p10 promoter. Additionally, sequence encoding for histidine tag and Tobacco Etch Virus (“TEV”) cleavage site preceded p110α ORF (Open Reading Frame). Recombinant baculovirus was generated using Bac-to-Bac protocol (Life Technologies, Carlsbad, Calif.) and large scale expression was conducted in Sf21 (Life Technologies, Carlsbad, Calif.) cells at a multiplicity of infection (“MOI”)=1 for 72 hours. Cells were lyzed in 50 mM Tris pH 8.0, 250 mM NaCl, 5% glycerol, 0.25 mM TCEP, and 20 mM imidazole. The PI3Kα complex was purified from clarified supernatant using Immobilized Metalo Affinity Chromatography (“IMAC”). The protein was eluted from the column using 50 mM Tris pH 8.0, 200 mM NaCl, 5% glycerol, 0.25 mM TCEP, and 200 mM imidazole, and further desalted into 50 mM Tris pH 8.0, 20 mM NaCl, and 0.25 mM TCEP prior to loading on MonoQ sepharose (GE Healthcare, Piscataway, N.J.). PI3Kα complex was eluted from MonoQ sepharose over 20 column volumes using 0-30% gradient of buffer B (50 mM Tris pH 8.0, 1 M NaCl, and 0.25 mM TCEP). The peak fractions were pulled together and loaded on Superdex 200 26/60 SEC column equilibrated in 50 mM Tris pH 8.0, 200 mM NaCl, and 0.5 mM TCEP. […] Purity and integrity of the complex was confirmed using LCMS, analytical SEC and SDS-PAGE (sodium dodecyl sulfate polyacrylamide gel electrophoresis) analysis.
# The biochemical assays of kinase activity of full-length PI3Kα (full-length p110α/p85a) or truncated PI3Kα (p110α/iSH2 p85a) were conducted using a fluorescence polarization format similar to the procedure of Yuan J., et al., (2011) “PF-04691502, a Potent and Selective Oral Inhibitor of PI3K and mTOR Kinases with Antitumor Activity”, Mol Cancer Ther. 10, 2189-2199. The enzymatic reactions were conducted in 50 μL volumes in 96-well plates. The reactions contained human recombinant PI3Kα (2 nM full-length p110α/p85α or 0.5 nM p110α/iSH2 p85) and 30 μM phosphatidylinositol 4,5-bisphosphate (“PIP2”) (Cayman Chemical Company, Ann Arbor, Mich.) and were sonicated for 1 minute prior to adding PI3Kα enzyme (PI3KA_Act or PI3KA_FL), DMSO or test compound (12-point 3-fold serial dilution, 3 μM top dose, 2° A) DMSO final concentration), 5 mM MgCl2, 50 mM HEPES pH 7.4, 150 mM NaCl, 1 mM DTT ((2S,3S)-1,4-bis(sulfanyl)butane-2,3-diol), and 0.05% 3-[(3-cholamidopropyl)dimethylammonio]-1-propanesulfonate (“CHAPS”). […] The reactions were incubated for 30 min at room temperature, stopped with EDTA pH 8 (10 mM final concentration). In a detection plate, 15 μL of detector/probe mixture, containing 480 nM GST-Grp1 PH domain protein (University of Dundee, Dundee, UK) and 12 nM carboxytetramethylrhodamine (“TAMRA”)-tagged fluorescent phosphatidylinositol (3,4,5)-triphosphate (“PIP3”) (Echelon Biosciences, Inc., Salt Lake City, Utah) in assay buffer, was mixed with 15 μL of kinase reaction mixture. The plate was shaken for 30 minutes and fluorescence polarization values were measured on an LJL Analyst HT plate reader (Molecular Devices, Sunnyvale, Calif.). […] The inhibition constants (Ki) were calculated by fitting fluorescence polarization values, corresponding to initial reaction rates, to the Morrison equation (Morrison, J. F. (1969) Kinetics of the reversible inhibition of enzyme catalysed reactions by tight-binding inhibitors. Biochim. Biophys. Acta 185, 269-286) for tight-binding competitive inhibitors using non-linear regression method (GraphPad Prism, GraphPad Software, San Diego, Calif.).
# Sequence of full-length PI3Kα (full-length p110α/p85α) (P42336 whole entry): as the sequence (P42336 whole entry, the tested form may be a part) above
# Sequence of full-length PI3Kα (full-length p110α/p85α) (P27986 whole entry partner): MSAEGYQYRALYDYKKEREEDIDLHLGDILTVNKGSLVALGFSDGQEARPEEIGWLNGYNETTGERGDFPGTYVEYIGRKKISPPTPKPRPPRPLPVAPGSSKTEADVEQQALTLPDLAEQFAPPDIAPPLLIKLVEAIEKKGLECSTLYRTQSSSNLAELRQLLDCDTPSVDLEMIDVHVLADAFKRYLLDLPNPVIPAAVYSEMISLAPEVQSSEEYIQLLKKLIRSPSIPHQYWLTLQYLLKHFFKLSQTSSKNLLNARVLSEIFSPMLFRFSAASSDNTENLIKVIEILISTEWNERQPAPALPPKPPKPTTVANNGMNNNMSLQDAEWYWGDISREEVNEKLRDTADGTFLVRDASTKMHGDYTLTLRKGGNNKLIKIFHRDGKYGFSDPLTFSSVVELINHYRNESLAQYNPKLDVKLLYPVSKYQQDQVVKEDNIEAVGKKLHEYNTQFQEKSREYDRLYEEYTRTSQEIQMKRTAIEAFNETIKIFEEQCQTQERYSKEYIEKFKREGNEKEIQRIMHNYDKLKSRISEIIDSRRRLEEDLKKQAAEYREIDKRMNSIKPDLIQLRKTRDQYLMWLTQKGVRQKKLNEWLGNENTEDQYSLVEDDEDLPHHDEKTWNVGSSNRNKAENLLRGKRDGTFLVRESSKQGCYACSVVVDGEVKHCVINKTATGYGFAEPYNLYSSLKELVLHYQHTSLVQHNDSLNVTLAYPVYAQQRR
Compound,PI3KA_FL Ki (nM),PI3KA_FL Ki [nM]
CC1(N2CCc3c(-c4cnc(N)nc4)nc(N4CCOCC4)nc32)CCN(S(C)(=O)=O)C1 (racemic) [Example 146],≦0.229 nM,–
"Nc1ncc(-c2nc(N3CCOCC3)nc3c2CCN3[C@H]2CCC(F)(F)C2)cn1 (single isomer, unassigned) [Example 34]",–,0.469
"Nc1ncc(-c2nc(N3CCOCC3)nc3c2CCN3[C@@H]2CCC(F)(F)C2)cn1 (single isomer, unassigned) [Example 35]",–,0.393
"CC(=O)N1C[C@@H](F)[C@@H](N2CCc3c(-c4cnc(N)nc4)nc(N4CCOCC4)nc32)C1 (single isomer, unassigned) [Example 74]",–,5.079
"CC(C)S(=O)(=O)N1CC(N2CCc3c(-c4cnc(N)nc4)nc(N4CCOC[C@@H]4C)nc32)C1 [Example 1, 5-{2-[(3S)-3-methylmorpholin-4-yl]-7-[1-(propan-2-ylsulfonyl)azetidin-3-yl]-6,7-dihydro-5H-pyrrolo[2,3-d]pyrimidin-4-yl}pyrimidin-2-amine]",≦0.229 nM,–
Nc1ncc(-c2nc(N3CCOCC3)nc3c2CCN3C2CC(F)(F)C2)cn1 [Example 13],–,0.307
CS(=O)(=O)N1CC[C@H](N2CCc3c(-c4cnc(N)nc4)nc(N4CCOCC4)nc32)C1 [Example 20],≦0.229 nM,–
CNS(=O)(=O)N1CC[C@H](N2CCc3c(-c4cnc(N)nc4)nc(N4CCOCC4)nc32)C1 [Example 38],–,0.228
CC(=O)N1C[C@@H](C)[C@@H](N2CCc3c(-c4cnc(N)nc4)nc(N4CCOCC4)nc32)C1 [Example 68],–,9.393
CC(=O)N[C@H]1CC[C@@H]1N1CCc2c(-c3cnc(N)nc3)nc(N3CCOCC3)nc21 [Example 70],–,4.601
CC(=O)N1C[C@H](C(F)F)[C@@H](N2CCc3c(-c4cnc(N)nc4)nc(N4CCOCC4)nc32)C1 [Example 71],–,8.899
Nc1ncc(-c2nc(N3CCOCC3)nc3c2CCN3[C@@H]2CCNC(=O)C2)cn1 [Example 77],–,8.025
Nc1ncc(-c2nc(N3CCOCC3)nc3c2CCN3[C@H]2CCNC(=O)C2)cn1 [Example 78],–,14.681
CS(=O)(=O)N1CC[C@@H](N2CCc3c(-c4cnc(N)nc4)nc(N4CCOCC4)nc32)C1 [Example 80],–,1.247
CNS(=O)(=O)N1CC[C@@H](N2CCc3c(-c4cnc(N)nc4)nc(N4CCOCC4)nc32)C1 [Example 81],–,0.788
C[C@H]1COCCN1c1nc(-c2cnc(N)nc2)c2c(n1)N([C@@H]1CCN(S(C)(=O)=O)C1)CC2 [Example 83],–,0.761
Nc1ncc(-c2nc(N3CCOCC3)nc3c2CCN3[C@@H]2CCN(S(N)(=O)=O)C2)cn1 [Example 84],–,3.507
NC(=O)N1CC(N2CCc3c(-c4cnc(N)nc4)nc(N4CCOCC4)nc32)C1 [Example 86],–,3.673
C[C@H]1COCCN1c1nc(-c2cnc(N)nc2)c2c(n1)N(C1CC(F)(F)C1)CC2 [Example 87],–,0.462
C[C@H]1COCCN1c1nc(-c2cnc(N)nc2)c2c(n1)N([C@H]1C[C@H](N(C)S(C)(=O)=O)C1)CC2 [Example 90],–,0.403
CNS(=O)(=O)N1CCC[C@H](N2CCc3c(-c4cnc(N)nc4)nc(N4CCOCC4)nc32)C1 [Example 91],–,1.472

Compound,PI3KA_FL Ki (nM),PI3KA_FL Ki [nM]
CC(C)[C@@H](O)C(=O)N(C)[C@H]1C[C@H](N2CCc3c(-c4cnc(N)nc4)nc(N4CCOC[C@@H]4C)nc32)C1 [Example 94],–,2.371
CC(=O)N1CC[C@H](N2CCc3c(-c4cnc(N)nc4)nc(N4CCOC[C@@H]4C)nc32)C1 [Example 96],–,2.093
CNS(=O)(=O)N1CCC[C@@H](N2CCc3c(-c4cnc(N)nc4)nc(N4CCOCC4)nc32)C1 [Example 97],–,3.632
CO[C@@H]1CN(C(C)=O)C[C@H]1N1CCc2c(-c3cnc(N)nc3)nc(N3CCOC[C@@H]3C)nc21 [Example 98],–,1.244
CS(=O)(=O)N1CCC[C@H](N2CCc3c(-c4cnc(N)nc4)nc(N4CCOCC4)nc32)C1 [Example 99],–,2.122
CO[C@@H]1CN(S(C)(=O)=O)C[C@H]1N1CCc2c(-c3cnc(N)nc3)nc(N3CCOC[C@@H]3C)nc21 [Example 103],–,0.557
CS(=O)(=O)N[C@H]1C[C@@H](N2CCc3c(-c4cnc(N)nc4)nc(N4CCOCC4)nc32)C1 [Example 107],–,1.388
CN(C)S(=O)(=O)N1CC(N2CCc3c(-c4cnc(N)nc4)nc(N4CCOCC4)nc32)C1 [Example 110],–,0.735
CCS(=O)(=O)N1CC[C@@H](N2CCc3c(-c4cnc(N)nc4)nc(N4CCOCC4)nc32)C1 [Example 112],–,0.491
CS(=O)(=O)[C@H]1CC[C@@H](N2CCc3c(-c4cnc(N)nc4)nc(N4CCOCC4)nc32)C1 [Example 114],–,1.268
CC(C)S(=O)(=O)N1CC(N2CCc3c(-c4cnc(N)nc4)nc(N4CCOCC4)nc32)C1 [Example 116],–,0.961
CC(C)OC(=O)N1CC[C@H](N2CCc3c(-c4cnc(N)nc4)nc(N4CCOC[C@@H]4C)nc32)C1 [Example 124],–,0.333
C[C@H]1COCCN1c1nc(-c2cnc(N)nc2)c2c(n1)N([C@@H]1CN(S(N)(=O)=O)C[C@H]1O)CC2 [Example 127],–,0.789
CN(C)S(=O)(=O)[C@H]1CC[C@@H](N2CCc3c(-c4cnc(N)nc4)nc(N4CCOCC4)nc32)C1 [Example 129],–,0.380
CNS(=O)(=O)[C@H]1CC[C@@H](N2CCc3c(-c4cnc(N)nc4)nc(N4CCOCC4)nc32)C1 [Example 130],–,0.352
COCCOC(=O)N1CC[C@H](N2CCc3c(-c4cnc(N)nc4)nc(N4CCOC[C@@H]4C)nc32)C1 [Example 133],–,0.468
CC(C)N1CCc2c(-c3cnc(N)nc3)nc(N3CCOCC3)nc21 [Example 134],–,3.883
CC(C)(C)NC(=O)N1CC[C@@H](N2CCc3c(-c4cnc(N)nc4)nc(N4CCOCC4)nc32)C1 [Example 135],–,5.159
Nc1ncc(-c2nc(N3CCOCC3)nc3c2CCN3[C@@H]2CC[C@H](S(N)(=O)=O)C2)cn1 [Example 137],–,0.664
C[C@H]1COCCN1c1nc(-c2cnc(N)nc2)c2c(n1)N([C@@H]1CCN(C(=O)NC(C)(C)C)C1)CC2 [Example 138],–,5.547
CC(C)(C)NC(=O)N1CC[C@H](N2CCc3c(-c4cnc(N)nc4)nc(N4CCOCC4)nc32)C1 [Example 139],–,0.596
